In ChEMBL document CHEMBL4840335, “Rational Design and Development of Novel CDK9 Inhibitors for the Treatment of Acute Myeloid Leukemia” (J Med Chem, 2021):
One block for each compound: values may come before it. The source made the active and inactive calls. The calls are words filed in the database; no cut-off is given here.

How the values were obtained:
CDK9/cyclin T1 = CDK9/cyclin T1 (Homo sapiens, UniProt P50750); test: Inhibition of CDK9/cyclin T1 (unknown origin) incubated for 2 hrs in presence of ATP by FRET based LANCE assay; format: protein-complex assay
[1] = target: CDK9/cyclin T1 (Homo sapiens) (UniProt O60563+P50750); test: Inhibition of CDK9/cyclin T1 (unknown origin) at 10 uM incubated for 2 hrs in presence of ATP by FRET based LANCE assay relative to control; format: protein-complex assay
[2] = target: Cyclin-dependent kinase 6 (Homo sapiens, UniProt Q00534); test: Inhibition of CDK6 (unknown origin)
[3] = target: Cyclin-dependent kinase 7 (Homo sapiens, UniProt P50613); test: Inhibition of CDK7 (unknown origin)
[4] = target: Cyclin-dependent kinase 4 (Homo sapiens, UniProt P11802); test: Inhibition of CDK4 (unknown origin)
[5] = target: Cyclin-dependent kinase 2 (Homo sapiens, UniProt P24941); test: Inhibition of CDK2 (unknown origin)
MV4-11 [6] = test: Induction of apoptosis in human MV4-11 cells assessed as live cells at 10 nM measured after 24 hrs by annexinV-FITC/propidium iodide staining based flow cytometry (reference value: 95.14 %); format: functional
TMD8 = test: Antiproliferative activity against human TMD8 cells assessed as reduction in cell proliferation measured after 3 to 7 days by MTS assay; format: functional, cell-based
MM1.S = test: Antiproliferative activity against human MM1.S cells assessed as reduction in cell proliferation measured after 3 to 7 days by MTS assay; format: functional, cell-based
MV4-11 [7] = test: Induction of apoptosis in human MV4-11 cells assessed as late apoptotic cells at 10 nM measured after 24 hrs by annexinV-FITC/propidium iodide staining based flow cytometry (reference value: 3.04 %); format: functional
MV4-11 [8] = test: Induction of apoptosis in human MV4-11 cells assessed as necrotic cells at 50 nM measured after 24 hrs by annexinV-FITC/propidium iodide staining based flow cytometry (reference value: 1.03 %); format: functional
MV4-11 [9] = test: Induction of apoptosis in human MV4-11 cells assessed as necrotic cells at 10 nM measured after 24 hrs by annexinV-FITC/propidium iodide staining based flow cytometry (reference value: 1.03 %); format: functional
Z-138 = test: Antiproliferative activity against human Z138 cells assessed as reduction in cell proliferation measured after 3 to 7 days by MTS assay; format: functional, cell-based
CCRF-CEM = test: Antiproliferative activity against human CCRF-CEM cells assessed as reduction in cell proliferation measured after 3 to 7 days by MTS assay; format: functional, cell-based
MV4-11 [10] = test: Induction of apoptosis in human MV4-11 cells assessed as early apoptotic cells at 10 nM measured after 24 hrs by annexinV-FITC/propidium iodide staining based flow cytometry (reference value: 0.79 %); format: functional
MV4-11 [11] = test: Induction of apoptosis in human MV4-11 cells assessed as activation of cleaved PARP at 5 to 50 nM measured after 24 hrs by Western blot analysis; format: functional, cell-based; settings: dose 5-50 nM
MV4-11 [12] = test: Induction of apoptosis in human MV4-11 cells assessed as late apoptotic cells at 50 nM measured after 24 hrs by annexinV-FITC/propidium iodide staining based flow cytometry (reference value: 3.04 %); format: functional
MV4-11 [13] = test: Induction of apoptosis in human MV4-11 cells assessed as early apoptotic cells at 50 nM measured after 24 hrs by annexinV-FITC/propidium iodide staining based flow cytometry (reference value: 0.79 %); format: functional
HL-60 = test: Antiproliferative activity against human HL-60 cells assessed as reduction in cell proliferation measured after 3 to 7 days by MTS assay; format: functional, cell-based
MV4-11 [14] = test: Induction of apoptosis in human MV4-11 cells assessed as activation of caspase-3 at 5 to 50 nM measured after 24 hrs by Western blot analysis; format: functional, cell-based; settings: dose 5-50 nM
JeKo-1 = test: Antiproliferative activity against human JeKo-1 cells assessed as reduction in cell proliferation measured after 3 to 7 days by MTS assay; format: functional, cell-based
MV4-11 [15] = test: Induction of apoptosis in human MV4-11 cells assessed as live cells at 50 nM measured after 24 hrs by annexinV-FITC/propidium iodide staining based flow cytometry (reference value: 95.14 %); format: functional
Raji = test: Antiproliferative activity against human Raji cells assessed as reduction in cell proliferation measured after 3 to 7 days by MTS assay; format: functional, cell-based
Kasumi 1 = test: Antiproliferative activity against human Kasumi 1 cells assessed as reduction in cell proliferation measured after 3 to 7 days by MTS assay; format: functional, cell-based
RPMI-8226 = test: Antiproliferative activity against human RPMI-8226 cells assessed as reduction in cell proliferation measured after 3 to 7 days by MTS assay; format: functional, cell-based
MV4-11 [16] = test: Antiproliferative activity against human MV4-11 cells assessed as reduction in cell proliferation measured after 3 to 7 days by MTS assay; format: functional, cell-based
[17] = Antiproliferative activity against human MINO cells assessed as reduction in cell proliferation measured after 3 to 7 days by MTS assay; format: functional, cell-based
OCI-Ly10 = test: Antiproliferative activity against human OCILY10 cells assessed as reduction in cell proliferation measured after 3 to 7 days by MTS assay; format: functional, cell-based

Chain of Cyclin-dependent kinase 6 (Q00534 whole entry): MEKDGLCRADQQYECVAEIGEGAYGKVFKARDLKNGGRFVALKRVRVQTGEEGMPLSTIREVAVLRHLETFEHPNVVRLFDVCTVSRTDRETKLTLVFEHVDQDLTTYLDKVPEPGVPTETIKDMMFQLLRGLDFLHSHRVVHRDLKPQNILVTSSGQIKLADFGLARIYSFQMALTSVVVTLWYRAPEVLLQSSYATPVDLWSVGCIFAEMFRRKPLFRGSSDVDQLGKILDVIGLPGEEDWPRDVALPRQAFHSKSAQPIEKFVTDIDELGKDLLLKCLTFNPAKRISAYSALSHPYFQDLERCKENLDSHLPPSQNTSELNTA
Chain of Cyclin-dependent kinase 4 (P11802 whole entry): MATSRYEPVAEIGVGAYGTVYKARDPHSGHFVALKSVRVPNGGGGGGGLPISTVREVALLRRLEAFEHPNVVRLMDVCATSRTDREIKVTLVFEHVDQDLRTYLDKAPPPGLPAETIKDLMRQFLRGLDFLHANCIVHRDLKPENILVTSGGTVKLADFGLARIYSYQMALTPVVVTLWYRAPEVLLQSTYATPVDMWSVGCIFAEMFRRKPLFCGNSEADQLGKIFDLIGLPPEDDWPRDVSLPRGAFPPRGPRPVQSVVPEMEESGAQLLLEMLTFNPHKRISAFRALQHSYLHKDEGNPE
Chain of CDK9/cyclin T1 (O60563 whole entry): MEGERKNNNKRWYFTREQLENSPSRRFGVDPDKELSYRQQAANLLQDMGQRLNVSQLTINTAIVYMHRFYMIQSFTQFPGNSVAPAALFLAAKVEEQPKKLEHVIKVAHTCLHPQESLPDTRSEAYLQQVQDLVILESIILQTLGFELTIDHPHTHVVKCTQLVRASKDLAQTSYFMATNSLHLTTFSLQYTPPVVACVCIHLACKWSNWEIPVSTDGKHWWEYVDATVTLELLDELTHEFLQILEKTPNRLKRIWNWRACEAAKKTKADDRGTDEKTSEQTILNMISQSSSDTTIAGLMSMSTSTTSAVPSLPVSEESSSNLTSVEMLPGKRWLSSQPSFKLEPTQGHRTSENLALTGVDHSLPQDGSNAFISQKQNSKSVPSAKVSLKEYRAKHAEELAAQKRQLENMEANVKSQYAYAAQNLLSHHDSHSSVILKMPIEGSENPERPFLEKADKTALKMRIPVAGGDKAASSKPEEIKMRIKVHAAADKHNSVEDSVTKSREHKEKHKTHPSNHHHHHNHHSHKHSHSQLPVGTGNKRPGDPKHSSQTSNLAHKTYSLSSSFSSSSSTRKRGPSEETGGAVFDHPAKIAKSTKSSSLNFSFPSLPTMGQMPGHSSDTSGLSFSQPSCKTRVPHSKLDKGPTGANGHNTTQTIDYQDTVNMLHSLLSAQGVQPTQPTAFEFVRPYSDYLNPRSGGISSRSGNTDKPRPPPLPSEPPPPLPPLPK
Chain of CDK9/cyclin T1 (P50750 whole entry): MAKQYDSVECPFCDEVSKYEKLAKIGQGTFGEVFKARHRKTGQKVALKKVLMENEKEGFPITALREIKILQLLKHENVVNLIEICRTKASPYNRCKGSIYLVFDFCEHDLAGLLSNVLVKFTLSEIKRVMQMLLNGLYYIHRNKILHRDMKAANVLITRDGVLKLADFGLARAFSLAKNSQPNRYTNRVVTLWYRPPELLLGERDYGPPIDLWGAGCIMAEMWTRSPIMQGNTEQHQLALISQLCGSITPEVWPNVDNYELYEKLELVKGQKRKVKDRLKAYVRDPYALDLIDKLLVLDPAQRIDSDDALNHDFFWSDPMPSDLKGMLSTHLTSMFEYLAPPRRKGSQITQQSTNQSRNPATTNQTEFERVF
Chain of Cyclin-dependent kinase 7 (P50613 whole entry): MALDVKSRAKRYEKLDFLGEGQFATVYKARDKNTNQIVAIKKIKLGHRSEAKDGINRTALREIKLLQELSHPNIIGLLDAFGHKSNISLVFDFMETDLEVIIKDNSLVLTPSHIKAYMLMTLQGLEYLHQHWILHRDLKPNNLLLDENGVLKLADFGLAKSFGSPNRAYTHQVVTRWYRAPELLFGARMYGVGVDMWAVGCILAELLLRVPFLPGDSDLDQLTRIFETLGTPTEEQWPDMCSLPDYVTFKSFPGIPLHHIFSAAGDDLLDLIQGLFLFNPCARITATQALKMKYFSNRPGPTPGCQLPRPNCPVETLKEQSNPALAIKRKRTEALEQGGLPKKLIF

IC50 (CDK9/cyclin T1): 633 nM
Structure (SMILES): Cc1n[nH]c2ccc(-c3cncc(NC(CO)c4cccc(OC(F)(F)F)c4)n3)cc12 (racemic)

IC50 (CDK9/cyclin T1): 42.3 nM
Structure (SMILES): OC[C@H](Nc1cncc(-c2ccc3[nH]ncc3c2)n1)c1ccccc1

IC50 (CDK9/cyclin T1): 341 nM
Structure (SMILES): Cc1n[nH]c2ccc(-c3cncc(NC(CO)c4cccc(C(F)(F)F)c4)n3)cc12 (racemic)

IC50 (CDK9/cyclin T1): 24.7 nM
Structure (SMILES): Cc1n[nH]c2ccc(-c3cncc(N[C@@H](CO)c4ccc(F)c(F)c4)n3)cc12

inhibition [1]: 0.61%
Structure (SMILES): O=c1[nH]c2ccc(-c3cncc(NC(CO)c4ccccc4)n3)cc2[nH]1 (centres undefined)

inhibition [1]: 2.63%
Structure (SMILES): OCC(Nc1cncc(-c2ccc3nccnc3c2)n1)c1ccccc1 (centres undefined)

IC50 (CDK9/cyclin T1): 6800 nM
Structure (SMILES): Cc1n[nH]c2ccc(-c3cncc(N[C@H](C)c4ccc(F)cc4)n3)cc12

IC50 (CDK9/cyclin T1): 883 nM
Structure (SMILES): Cc1n[nH]c2ccc(-c3cncc(N[C@H](C)c4ccccc4)n3)cc12

IC50 (CDK9/cyclin T1): 995 nM
Structure (SMILES): Cc1n[nH]c2ccc(-c3cncc(NC(C)CO)n3)cc12 (centres undefined)

IC50 (CDK9/cyclin T1): 50.3 nM
Structure (SMILES): Cc1n[nH]c2ccc(-c3cncc(NC(CO)c4ccc(F)cc4)n3)cc12 (racemic)

inhibition [1]: 31.4%
Structure (SMILES): O=C1Cc2cc(-c3cncc(NC(CO)c4ccccc4)n3)ccc2N1 (centres undefined)

IC50 (CDK9/cyclin T1): 153 nM
Structure (SMILES): Cc1cccc(C(CO)Nc2cncc(-c3ccc4[nH]nc(C)c4c3)n2)c1 (racemic)

IC50 (CDK9/cyclin T1): 8770 nM
Structure (SMILES): Cc1n[nH]c2ccc(-c3cncc(N[C@H](CO)c4ccccc4)n3)cc12

IC50 (CDK9/cyclin T1): 8920 nM
Structure (SMILES): OCC(Nc1cncc(-c2ccc3occc3c2)n1)c1ccccc1 (centres undefined)

IC50 [2]: > 1000 nM
IC50 [3]: > 1000 nM
IC50 [4]: > 1000 nM
IC50 [5]: 56.1 nM
IC50 (CDK9/cyclin T1): 20.4 nM
Structure (SMILES): Cc1n[nH]c2ccc(-c3cncc(N[C@@H](CO)c4ccc(F)cc4)n3)cc12

IC50 [2]: > 1000 nM
IC50 [3]: 322 nM
IC50 [4]: > 1000 nM
IC50 [5]: 52.9 nM
IC50 (CDK9/cyclin T1): 643 nM
Structure (SMILES): Cc1n[nH]c2ccc(-c3cncc(NC4CCCC(O)C4)n3)cc12 (centres undefined)

IC50 [2]: > 1000 nM
IC50 [3]: > 1000 nM
IC50 [4]: > 1000 nM
IC50 [5]: 67.4 nM
IC50 (CDK9/cyclin T1): 6.04 nM
Structure (SMILES): Cc1n[nH]c2ccc(-c3cncc(N[C@@H](CO)c4ccccc4)n3)cc12

inhibition [1]: 13.8%
Structure (SMILES): Cc1nc2c(F)cc(-c3cncc(NC(CO)c4ccccc4)n3)cc2n1C(C)C (centres undefined)

IC50 (CDK9/cyclin T1): 6.57 nM
Structure (SMILES): Cc1n[nH]c2ncc(-c3cncc(N[C@@H](CO)c4ccccc4)n3)cc12

IC50 (CDK9/cyclin T1): 75.6 nM
Structure (SMILES): Cc1n[nH]c2ccc(-c3cncc(N[C@@H](CO)c4ccc(Cl)cc4)n3)cc12

IC50 (MM1.S): 6.3 nM
IC50 (CCRF-CEM): 3.3 nM
IC50 [2]: > 1000 nM
IC50 [3]: > 1000 nM
IC50 [4]: > 1000 nM
IC50 (HL-60): 5.7 nM
IC50 [5]: > 1000 nM
IC50 (CDK9/cyclin T1): 4.96 nM
IC50 (Raji): 11 nM
IC50 (RPMI-8226): 14 nM
IC50 (MV4-11 [16]): 5.4 nM
IC50 (OCI-Ly10): 2.1 nM
Structure (SMILES): COC[C@H](C)N[C@H]1CC[C@H](Nc2cc(-c3cccc(NCC4(C#N)CCOCC4)n3)c(Cl)cn2)CC1
Activity (MV4-11 [6]): 77.97%
IC50 (TMD8): 15 nM
Activity (MV4-11 [7]): 15.48%
Activity (MV4-11 [8]): 16.67%
Activity (MV4-11 [9]): 3.23%
IC50 (Z-138): 3.7 nM
Activity (MV4-11 [10]): 3.33%
Activity (MV4-11 [11]): Active
Activity (MV4-11 [12]): 77.18%
Activity (MV4-11 [13]): 1.8%
Activity (MV4-11 [14]): Active
IC50 (JeKo-1): 10 nM
Activity (MV4-11 [15]): 4.36%
IC50 (Kasumi 1): 6.8 nM
IC50 [17]: 5.2 nM

IC50 (CDK9/cyclin T1): 27.3 nM
Structure (SMILES): Cc1n[nH]c2ccc(-c3cncc(NC(CO)c4ccc(F)c(F)c4)n3)cc12 (racemic)

IC50 (CDK9/cyclin T1): 774 nM
Structure (SMILES): COc1ccc([C@H](CO)Nc2cncc(-c3ccc4[nH]nc(C)c4c3)n2)cc1

IC50 (CDK9/cyclin T1): 26.5 nM
Structure (SMILES): Cc1n[nH]c2ccc(-c3cc(N[C@@H](CO)c4ccc(F)cc4)cnc3Cl)cc12

IC50 [2]: > 1000 nM
IC50 [3]: > 1000 nM
IC50 [4]: > 1000 nM
IC50 [5]: > 1000 nM
IC50 (CDK9/cyclin T1): 20.7 nM
Structure (SMILES): Cc1n[nH]c2ncc(-c3cc(N[C@@H](CO)c4ccccc4)cnc3Cl)cc12

IC50 [2]: > 1000 nM
IC50 [3]: 496 nM
IC50 [4]: > 1000 nM
IC50 [5]: 34.5 nM
IC50 (CDK9/cyclin T1): 9.15 nM
Structure (SMILES): Cc1n[nH]c2ccc(-c3cncc(N[C@@H](CO)c4cccc(F)c4)n3)cc12

inhibition [1]: 12.4%
Structure (SMILES): COc1cc(F)ccc1-c1cncc(NC(CO)c2ccccc2)n1 (centres undefined)

IC50 [2]: > 1000 nM
IC50 [3]: > 1000 nM
IC50 [4]: > 1000 nM
IC50 [5]: 147 nM
IC50 (CDK9/cyclin T1): 14.2 nM
Structure (SMILES): Cc1n[nH]c2ccc(-c3cncc(NC(CO)c4ccccc4)n3)cc12 (racemic)

IC50 (CDK9/cyclin T1): 24.2 nM
Structure (SMILES): Cc1n[nH]c2ccc(-c3cncc(NC(CO)c4ccccc4F)n3)cc12 (racemic)
